Assay results from ChEMBL document CHEMBL4118214, “Structure activity relationships of anthranilic acid-based compounds on cellular and in vivo mitogen activated protein kinase-5 signaling pathways” (Bioorg Med Chem Lett, 2018).

Molecular target: Dual specificity mitogen-activated protein kinase kinase; MEK1/2 (Homo sapiens, UniProt P36507+Q02750)
Test: Activation of MEK1/2 in EGF-stimulated human MDA-MB-231 cells assessed as increase in pERK1/2 levels preincubated for 30 mins followed by EGF stimulation measured after 15 mins by Western blot analysis relative to control
Assay type: cell-based
Conditions: mda-mb-231, 0.25 h

| Activity [%] | Compound |
| --- | --- |
| 20 | CN1CCN(C(=O)c2ccc(F)c(F)c2N(C)c2ccc(I)cc2F)CC1 |
| 20 | NC(=O)c1ccccc1Nc1ccccc1F |
| 20 | CN1CCN(C(=O)c2ccc(F)c(F)c2Nc2ccccc2)CC1 |

Test system: MDA-MB-231
Test: Antitumor activity against human MDA-MB-231 cells xenografted in SCID/Beige mouse assessed as tumor volume at 25 mg/kg, qd measured on day 30 (reference value: 49.48 +/- 3.44 mm3)
Assay type: functional
Conditions: not given

| Compound | Activity [mm3] |
| --- | --- |
| NC(=O)c1ccc(F)c(F)c1Nc1ccc(I)cc1F | 29.1 |

Molecular target: T1, Dual specificity mitogen-activated protein kinase kinase 5 (Homo sapiens, UniProt Q13163)
T1 sequence (Q13163 whole entry): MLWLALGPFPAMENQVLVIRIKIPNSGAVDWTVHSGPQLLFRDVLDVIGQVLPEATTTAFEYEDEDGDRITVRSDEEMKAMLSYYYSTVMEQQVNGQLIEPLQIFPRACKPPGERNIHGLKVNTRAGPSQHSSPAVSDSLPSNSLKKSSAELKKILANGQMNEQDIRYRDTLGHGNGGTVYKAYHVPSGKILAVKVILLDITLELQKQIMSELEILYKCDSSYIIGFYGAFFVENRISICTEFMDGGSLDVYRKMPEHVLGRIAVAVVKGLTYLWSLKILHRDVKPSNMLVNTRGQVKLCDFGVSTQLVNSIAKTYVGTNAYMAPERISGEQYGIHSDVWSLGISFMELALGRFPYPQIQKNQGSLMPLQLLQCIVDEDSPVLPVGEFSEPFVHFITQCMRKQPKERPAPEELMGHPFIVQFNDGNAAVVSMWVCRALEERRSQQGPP
Test: Activation of MEK5 in EGF-stimulated human MDA-MB-231 cells assessed as increase in pERK5 levels preincubated for 30 mins followed by EGF stimulation measured after 15 mins by Western blot analysis relative to control
Assay type: cell-based
Design: concentration or dose not given beside the values
Conditions: mda-mb-231, 0.25 h

| Compound | Activity [%] |
| --- | --- |
| O=C(O)c1ccc(F)c(F)c1Nc1ccccc1F | 20 |
| O=C(O)c1ccc(F)c(F)c1Nc1ccccc1 | 20 |

Other lines, results leading:

| Activity [%] | Compound |
| --- | --- |
| 20 | O=C(c1ccc(F)c(F)c1Nc1ccc(I)cc1F)N1CCNCC1 |
| 20 | CN(c1ccc(I)cc1F)c1c(C(N)=O)ccc(F)c1F |
| 20 | CCN(CC)C(=O)c1ccc(F)c(F)c1Nc1ccc(I)cc1F |
